According to patent US7041683B2 (Wyeth, priority 2001, dated 2006):
pIC50, pKi: −log10 of the molar value. Structures can show the parent of a compound that is named as a salt. Where two headings read alike, the source gives them in different places.

Key:
human 5-HT1A receptors = target: T1, human 5-HT1A receptors (Homo sapiens, UniProt P08908); experiment: [3H] 8-OHDPAT displacement from 5-HT1A receptor in stably transfected CHO cells; type: binding
T1 construct: expressed in transfected cells; host or cells: CHO cells
T1 sequence (P08908 1-422): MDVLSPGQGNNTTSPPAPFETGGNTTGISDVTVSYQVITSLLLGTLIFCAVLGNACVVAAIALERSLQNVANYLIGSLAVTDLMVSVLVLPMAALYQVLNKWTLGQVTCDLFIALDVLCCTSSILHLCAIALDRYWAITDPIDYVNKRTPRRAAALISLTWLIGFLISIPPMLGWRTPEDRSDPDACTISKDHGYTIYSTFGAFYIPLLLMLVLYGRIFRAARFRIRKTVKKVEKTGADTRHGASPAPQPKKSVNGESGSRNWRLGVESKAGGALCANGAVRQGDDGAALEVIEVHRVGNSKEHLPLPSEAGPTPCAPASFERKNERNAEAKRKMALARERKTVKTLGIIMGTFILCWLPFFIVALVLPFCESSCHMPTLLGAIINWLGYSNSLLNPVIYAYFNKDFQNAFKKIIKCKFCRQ
Text: High affinity for the serotonin 5-HT1A receptor was established by testing the claimed compound's ability to displace [^3H] 8-OHDPAT (dipropylaminotetralin) from the 5-HT1A serotonin receptor following a modification of the procedure of Hall et al., J. Neurochem. 44, 1685 (1985) which utilizes CHO cells stably transfected with human 5-HT1A receptors.

serotonin transporter = target: T2, serotonin transporter (Rattus norvegicus, UniProt P31652); experiment: 3H-paroxetine displacement from male rat frontal cortical membranes (serotonin transporter affinity); type: binding
T2 construct: displace ^3H-paroxetine from male rat frontal cortical membranes; from tissue; host or cells: male rat frontal cortex membranes
T2 sequence (P31652 whole entry): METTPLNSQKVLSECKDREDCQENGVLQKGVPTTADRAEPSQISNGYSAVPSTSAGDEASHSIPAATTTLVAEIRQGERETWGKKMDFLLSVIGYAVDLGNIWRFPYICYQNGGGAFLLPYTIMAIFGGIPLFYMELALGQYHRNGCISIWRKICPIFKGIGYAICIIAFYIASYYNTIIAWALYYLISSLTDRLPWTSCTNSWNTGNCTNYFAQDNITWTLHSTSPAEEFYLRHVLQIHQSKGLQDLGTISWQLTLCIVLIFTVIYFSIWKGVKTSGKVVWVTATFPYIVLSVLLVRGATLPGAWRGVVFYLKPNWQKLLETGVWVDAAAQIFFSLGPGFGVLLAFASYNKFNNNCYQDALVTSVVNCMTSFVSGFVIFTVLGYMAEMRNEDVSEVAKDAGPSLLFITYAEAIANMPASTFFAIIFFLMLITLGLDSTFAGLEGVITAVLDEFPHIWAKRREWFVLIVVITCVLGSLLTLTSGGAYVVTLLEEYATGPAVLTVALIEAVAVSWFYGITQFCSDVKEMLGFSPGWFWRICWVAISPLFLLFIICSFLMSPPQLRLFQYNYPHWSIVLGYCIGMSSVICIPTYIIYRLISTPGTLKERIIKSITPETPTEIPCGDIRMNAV

[1] = target: T3, cloned human 5-HT1A receptors (Homo sapiens, UniProt P08908); experiment: 35S-GTPγS binding assay, antagonist activity at 5-HT1A receptors; type: biochemical; design: 5-HT1A Function Imax (maximum inhibitory effect): unit not given here
T3 construct: expressed in transfected cells
T3 sequence (P08908 1-422): T1 sequence (P08908 1-422)
Description: Antagonist activity at 5-HT1A receptors was established by using a ^35S-GTPγS binding assay similar to that used by Lazareno and Birdsall (Br. J. Pharmacol. 109: 1120, 1993), in which the test compound's ability to affect the binding of ^35S-GTPγS to membranes containing cloned human 5-HT1A receptors was determined. Agonists produce an increase in binding whereas antagonists produce no increase but rather reverse the effects of the standard agonist 8-OHDPAT. The test compound's maximum inhibitory effect is represented as the Imax, while its potency is defined by the IC50.

[2] = 35S-GTPγS binding, reversal of the effects of the standard agonist 8-OHDPAT
[3] = 35S-GTPγS binding, reversal of the effects of the standard agonist 8-OHDPAT, read-out: 5-HT1A Function IC50

Structure (SMILES)	melting point	pKi (human 5-HT1A receptors)	pKi (serotonin transporter)	pIC50 [1]	5-HT1A Function Imax (maximum inhibitory effect) [1, 2]	pKi (human 5-HT1A receptors; displacement of [3H] 8-OHDPAT, CHO cells stably transfected with human 5-HT1A receptors, read-out: 5-HT1A Receptor Affinity KI)	pIC50 [1, 3]
COc1cccc2c1OC(CN1CC=C(c3c[nH]c4ccc(C#N)cc34)CC1)CO2 (centres unmarked) (as salt: hydrochloride) (hydrate or solvate) [Example 7, 3-[1-(8-Methoxy-2,3-dihydro-benzo[1,4]dioxin-2-ylmethyl)-1,2,3,6-tetrahydro-pyridin-4-yl]-1H-indole-5-carbonitrile]	235 to 238 °C						
COc1ccc2[nH]cc(C3=CCN(CC4COc5ccccc5O4)CC3)c2c1 (centres unmarked) (as salt: oxalate) [Example 1, 5-Methoxy-3-[4-[1,2,3,6-tetrahydro-1-[2-(2,3-dihydro[1,4]benzodioxinyl)]methyl]pyridinyl]indole]	120 °C (dec.)						
Fc1ccc2[nH]cc(C3=CCN(CC4COc5ccccc5O4)CC3)c2c1 (centres unmarked) (as salt: oxalate) [Example 2, 5-Fluoro-3-[4-[1,2,3,6-tetrahydro-1-[2-(2,3-dihydro[1,4]benzodioxinyl)]methyl]pyridinyl]indole]	145 °C (dec.)						
COc1cccc2c1O[C@@H](CN1CC=C(c3c[nH]c4ccc(F)cc34)CC1)CO2 (as salt: oxalate) [Example 14, 5-Fluoro-3-[1-(8-methoxy-2,3-dihydro-benzo[1,4]dioxin-2-ylmethyl)-1,2,3,6-tetrahydro-pyradin-4-yl]-1H-indole]	154 to 156 °C						
COc1cccc2c1OC(CN1CC=C(c3c[nH]c4ccccc34)CC1)CO2 (centres unmarked) (hydrate or solvate) [Example 5, 3-[1-(8-Methoxy-2,3-dihydro-benzo[1,4]dioxin-2-ylmethyl)-1,2,3,6-tetrahydro-pyridin-4-yl]-1H-indole]	203 to 205 °C						
Nc1ccc2c(c1)OCC(CN1CC=C(c3c[nH]c4ccccc34)CC1)O2 (single isomer, unassigned) [Example 3, 3-[4-(1H-Indol-3-yl)-3,6-dihydro-2H-pyridin-1-ylmethyl]-2,3-dihydro-benzo[1,4]dioxin-7-ylamine]	204 to 206 °C						
Nc1ccc2c(c1)O[C@@H](CN1CC=C(c3c[nH]c4ccccc34)CC1)CO2 (single isomer, unassigned) [Example 3]		7.51	8.94	6.63	(96.0)		
COc1ccc2[nH]cc(C3=CCN(CC4COc5ccccc5O4)CC3)c2c1 (centres unmarked) [Example 1, 5-Methoxy-3-[4-[1,2,3,6-tetrahydro-1-[2-(2,3-dihydro[1,4]benzodioxinyl)]methyl]pyridinyl]indole]		7.57					
Fc1ccc2[nH]cc(C3=CCN(CC4COc5ccccc5O4)CC3)c2c1 (centres unmarked) [Example 2, 5-Fluoro-3-[4-[1,2,3,6-tetrahydro-1-[2-(2,3-dihydro[1,4]benzodioxinyl)]methyl]pyridinyl]indole]		7.17	7.80				
Nc1ccc2c(c1)OCC(CN1CC=C(c3c[nH]c4ccccc34)CC1)O2 (centres unmarked) [Example 4, 2-[4-(1H-Indol-3-yl)-3,6-dihydro-2H-pyridin-1-ylmethyl]-2,3-dihydro-benzo[1,4]dioxin-6-ylamine]	199 to 200 °C		8.69		(90.0)	6.88	6.62
COc1cccc2c1OC(CN1CC=C(c3c[nH]c4ccccc34)CC1)CO2 (centres unmarked) [Example 5, 3-[1-(8-Methoxy-2,3-dihydro-benzo[1,4]dioxin-2-ylmethyl)-1,2,3,6-tetrahydro-pyridin-4-yl]-1H-indole]		8.55	9.77		(89.3)		7.24
Nc1ccc2c(c1)OCC(CN1CC=C(c3c[nH]c4ccc(F)cc34)CC1)O2 (centres unmarked) [Example 6, 2-[4-(5-Fluoro-1H-indol-3-yl)-3,6-dihydro-2H-pyridin-1-ylmethyl]-2,3-dihydro-benzo[1,4]dioxin-6-ylamine]	172 to 174 °C	7.33	9.47		(96.7)		6.39
COc1cccc2c1OC(CN1CC=C(c3c[nH]c4ccc(C#N)cc34)CC1)CO2 (centres unmarked) [Example 7, 3-[1-(8-Methoxy-2,3-dihydro-benzo[1,4]dioxin-2-ylmethyl)-1,2,3,6-tetrahydro-pyridin-4-yl]-1H-indole-5-carbonitrile]		8.10	8.98		(100)		7.08
COc1cccc2c1O[C@@H](CN1CC=C(c3c[nH]c4ncccc34)CC1)CO2 [Example 8, 3-[1-(8-Methoxy-2,3-dihydro-benzo[1,4]dioxin-2-ylmethyl)-1,2,3,6-tetrahydro-pyridin-4-yl]-1H-pyrrole[2,3-b]pyridine]	207 to 210 °C	8.37	7.41		(94.0)		7.59
COc1cccc2c1OC(CN1CC=C(c3c[nH]c4cc(F)ccc34)CC1)CO2 (centres unmarked) [Example 9, 6-Fluoro-3-[1-(8-methoxy-2,3-dihydro-1,4-benzodioxin-2-ylmethyl)-1,2,3,6-tetrahydro-pyridin-4-yl]-1H-indole]	184 to 185 °C	8.31	9.22		(80.0)		6.57
NC(=O)c1cccc2c1OC(CN1CC=C(c3c[nH]c4ccccc34)CC1)CO2 (centres unmarked) [Example 10, 3-[4-(1H-Indol-3-yl)-3,6-dihydro-2H-pyridin-1-ylmethyl]-2,3-dihydro-benzo[1,4]dioxine-5-carboxylic Acid Amide]	175 to 178 °C	7.19	8.30		(61.0)		5.89
NC(=O)c1cccc2c1OC(CN1CC=C(c3c[nH]c4ccc(F)cc34)CC1)CO2 (centres unmarked) [Example 11, 3-[4-(5-Fluoro-1H-indol-3-yl)-3,6-dihydro-2H-pyridin-1-ylmethyl]-2,3-dihydro-benzo[1,4]dioxine-5-carboxylic Acid Amide]	195 to 197 °C	7.15	8.50		(60.0)		6.13
Fc1cccc2c1OC(CN1CC=C(c3c[nH]c4ccccc34)CC1)CO2 (centres unmarked) [Example 12, 3-(1-{[8-Fluoro-2,3-dihydro-1,4-benzodioxin-2-yl]methyl}-1,2,3,6-tetrahydropyridin-4-yl)-1H-indole]	174 to 177 °C	7.45	7.31		(76.0)		6.28
COc1ccc2c(c1)OC(CN1CC=C(c3c[nH]c4ccccc34)CC1)CO2 (centres unmarked) [Example 13, 3-(1-{[7-Methoxy-2,3-dihydro-1,4-benzodioxin-2-yl]methyl}-1,2,3,6-tetrahydropyridin-4-yl)-1H-indole]	166 to 168 °C	7.76	7.40		(100)		6.28
COc1cccc2c1O[C@@H](CN1CC=C(c3c[nH]c4ccc(F)cc34)CC1)CO2 [Example 14, 5-Fluoro-3-[1-(8-methoxy-2,3-dihydro-benzo[1,4]dioxin-2-ylmethyl)-1,2,3,6-tetrahydro-pyradin-4-yl]-1H-indole]		8.07	8.75		(100)		7.15
